# Test results reported in article PMC6886544.
# Columns and labels:
# [1] = target: T1, EGFR-L858R (Homo sapiens, UniProt P00533, L858R); experiment: Kinetic characterization (Ki, kinact), EGFR-L858R
# [2] = test system: A549 cells (KRAS mutant); experiment: CellTiter-Glo viability assay, A549; details: Homo sapiens, A549, 96 h, read-out: KRAS CTG EC50 A549
# Procedure: (§1) A431, HCC827, H1975, A549 and H358 cells were obtained from the American Type Culture Collection (ATCC). A431 cells were cultured in DMEM high glucose media (Life Technologies, Germany), and HCC827, H1975, A549 as well as H358 cells were cultured in RPMI media (Life Technologies, Germany), both containing L-Glutamine and were supplemented with 10% FBS (GE Healthcare, Austria) and 1% PenStrep (Life Technologies, Germany) in a humidified incubator at 37 °C and 5% CO2.
# (§2) Cells were seeded at cell numbers that assure linearity and optimal signal intensity (150-300 cells/well, 25 µL) and cultured for 24 hours in serum- and antibiotics-containing media in humidified chambers at 37 °C / 5% CO2. The cells were then treated with EGFR inhibitors in serial
# (§3) Afterwards viability studies were carried out using CellTiter-Glo Assay (Promega, USA) that is a homogeneous method of determining the number of viable cells in culture. It is based on quantification of ATP, indicating the presence of metabolically active cells. For these studies, CellTiter-Glo reagent was prepared according to the instructions of the kit and diluted 1:1 with the complete growth medium suitable for the corresponding cell line. Thereon, reagent and assay plates were equilibrated at room temperature for 20 min. Equal volumes of the reagent were added to the volume of culture medium present in each well (25 µL). The plates were mixed for 2 minutes on an orbital shaker to induce cell lysis. The microplates were then incubated at room temperature for 20 minutes for stabilization of the luminescent signal. Following incubation the luminescence was recorded on an EnVision microplate reader (Perkin Elmer) using 500 ms integration time. The data was then analyzed using the Quattro Research Software Suite for EC50-determination. As quality control the Z’-factor was calculated from 16 positive and negative control values. Only assay results showing a Z’-factor ≥0.5 were used for further analysis. All data points were measured in duplicates for each plate and were replicated in at least two plates.
# [3] = target: T2, EGFR-L858R/T790M (Homo sapiens, UniProt P00533, L858R/T790M); experiment: HTRF KinEASE-TK activity-based assay, EGFR-L858R/T790M; details: EGFR HTRF IC50 L858R/T790M, ATP at Km (4 µM), 30 min preincubation; mean ± SD of three independent measurements in duplicates
# T2 sequence (P00533 25-1210 T790M/L858R): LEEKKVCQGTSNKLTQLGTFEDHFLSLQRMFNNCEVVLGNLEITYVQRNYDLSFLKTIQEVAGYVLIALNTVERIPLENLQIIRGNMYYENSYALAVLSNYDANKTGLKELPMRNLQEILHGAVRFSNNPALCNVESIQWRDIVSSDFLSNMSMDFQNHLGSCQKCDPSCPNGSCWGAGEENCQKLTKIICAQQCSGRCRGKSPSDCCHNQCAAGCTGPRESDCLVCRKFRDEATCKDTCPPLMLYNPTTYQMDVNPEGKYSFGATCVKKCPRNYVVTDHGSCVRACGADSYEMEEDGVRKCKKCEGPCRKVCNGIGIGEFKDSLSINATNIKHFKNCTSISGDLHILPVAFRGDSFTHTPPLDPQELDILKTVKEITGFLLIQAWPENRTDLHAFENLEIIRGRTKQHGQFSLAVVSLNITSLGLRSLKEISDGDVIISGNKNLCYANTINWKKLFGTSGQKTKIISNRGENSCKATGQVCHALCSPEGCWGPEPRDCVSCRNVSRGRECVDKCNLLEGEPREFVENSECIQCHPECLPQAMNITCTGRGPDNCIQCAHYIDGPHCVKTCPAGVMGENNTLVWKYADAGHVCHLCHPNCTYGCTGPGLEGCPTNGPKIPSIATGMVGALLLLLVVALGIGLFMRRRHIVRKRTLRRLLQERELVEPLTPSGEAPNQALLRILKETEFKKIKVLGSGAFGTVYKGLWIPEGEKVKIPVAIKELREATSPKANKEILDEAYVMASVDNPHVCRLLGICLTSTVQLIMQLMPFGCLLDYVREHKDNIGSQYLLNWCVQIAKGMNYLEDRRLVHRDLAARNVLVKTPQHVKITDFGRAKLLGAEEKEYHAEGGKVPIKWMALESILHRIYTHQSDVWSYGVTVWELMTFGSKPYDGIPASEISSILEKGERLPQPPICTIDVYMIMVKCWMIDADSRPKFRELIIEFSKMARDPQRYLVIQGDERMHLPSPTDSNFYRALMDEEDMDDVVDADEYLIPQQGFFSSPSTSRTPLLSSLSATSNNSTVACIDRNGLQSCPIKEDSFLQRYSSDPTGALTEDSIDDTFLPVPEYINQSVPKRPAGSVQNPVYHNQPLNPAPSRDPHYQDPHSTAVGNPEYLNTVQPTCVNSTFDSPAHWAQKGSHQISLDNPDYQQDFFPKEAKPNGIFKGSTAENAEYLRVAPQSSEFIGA
# [4] = test system: A431 cells (EGFR wild type); experiment: CellTiter-Glo viability assay, A431; details: Homo sapiens, A-431, 96 h, read-out: EGFR CTG EC50 A431, A431, 96 hours, CellTiter-Glo
# [5] = target: T1, EGFR-L858R; experiment: HTRF KinEASE-TK activity-based assay, EGFR-L858R
# [6] = target: T3, EGFR-wt (Homo sapiens, UniProt P00533); experiment: HTRF KinEASE-TK activity-based assay, EGFR-wt; details: EGFR HTRF IC50 wt, ATP at Km (9.5 µM), 30 min preincubation; mean ± SD of three independent measurements in duplicates
# T3 sequence (P00533 25-1210): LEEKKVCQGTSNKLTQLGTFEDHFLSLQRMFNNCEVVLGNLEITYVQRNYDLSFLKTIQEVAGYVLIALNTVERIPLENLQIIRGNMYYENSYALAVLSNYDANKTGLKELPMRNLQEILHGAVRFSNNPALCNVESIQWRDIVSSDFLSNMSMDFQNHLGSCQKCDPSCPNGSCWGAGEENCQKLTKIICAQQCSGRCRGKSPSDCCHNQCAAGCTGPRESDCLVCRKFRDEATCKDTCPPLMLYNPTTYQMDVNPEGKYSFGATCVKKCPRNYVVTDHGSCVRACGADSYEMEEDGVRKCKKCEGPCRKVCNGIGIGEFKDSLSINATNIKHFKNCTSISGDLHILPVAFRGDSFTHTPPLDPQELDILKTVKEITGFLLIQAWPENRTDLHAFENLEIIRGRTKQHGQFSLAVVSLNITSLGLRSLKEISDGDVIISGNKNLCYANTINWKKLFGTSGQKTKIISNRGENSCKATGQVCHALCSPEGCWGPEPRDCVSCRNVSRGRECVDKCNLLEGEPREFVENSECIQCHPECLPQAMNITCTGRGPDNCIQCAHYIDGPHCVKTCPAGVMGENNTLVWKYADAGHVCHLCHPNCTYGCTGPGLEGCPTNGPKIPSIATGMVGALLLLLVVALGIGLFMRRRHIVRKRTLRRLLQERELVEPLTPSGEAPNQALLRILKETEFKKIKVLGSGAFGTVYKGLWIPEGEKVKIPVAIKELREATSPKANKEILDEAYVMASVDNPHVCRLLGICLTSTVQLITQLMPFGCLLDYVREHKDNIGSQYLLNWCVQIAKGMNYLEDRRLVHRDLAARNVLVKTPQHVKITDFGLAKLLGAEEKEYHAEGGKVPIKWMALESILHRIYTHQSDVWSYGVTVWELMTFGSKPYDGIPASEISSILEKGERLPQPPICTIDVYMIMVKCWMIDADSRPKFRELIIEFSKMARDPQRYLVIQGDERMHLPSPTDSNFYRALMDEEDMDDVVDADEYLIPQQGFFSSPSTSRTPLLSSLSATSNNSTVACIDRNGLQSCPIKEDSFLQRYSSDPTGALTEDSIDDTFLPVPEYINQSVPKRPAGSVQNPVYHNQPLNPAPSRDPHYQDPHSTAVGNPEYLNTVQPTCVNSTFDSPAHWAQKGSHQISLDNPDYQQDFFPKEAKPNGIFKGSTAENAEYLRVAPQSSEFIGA
# [7] = Microsomal stability (phase I), mouse; assay type: in vitro ADME; details: mouse liver microsomes, up to 60 minutes, 37 °C
# Procedure: Microsomal stability (phase I) assay.
# Metabolic stability under oxidative conditions was measured in liver microsomes from different
# time up to 50 minutes (HLM) or 60 minutes (MLM) at 37 °C. Based on the compound half-life t1/2,
# the in vitro intrinsic clearance CLint was calculated. […]
# [8] = test system: EGFR and downstream cascade phosphorylation in H1975 cells; experiment: Western blot analysis in H1975 cells; assay type: cell-based; details: 1 h inhibitor then EGF stimulation
# Procedure: and incubated at 37 °C and 5% CO2. On day 2 cells were starved over night with media containing 0.5% FBS to be incubated on day 3 for 1 h with EGFR inhibitors following an additional 30 min of EGF stimulation at 50 ng/mL. The media was discarded and cells were washed once with DPBS
# 1x. Using 100 μL per well of lysis buffer, cells were then scraped off and lysed while rotating (Stuart Scientific, Staffordshire, UK) for 1 h at 4 °C. […] Supernatant was transferred into new tube and protein concentrations were determined with the Bio-Rad Protein Assay (Bio-Rad Laboratories, Hercules, CA). […]
# captured and quantified using a FUJI LAS3000 system with Science Lab 2001 ImageGauge 4.0 software (Fujifilm Medial Systems, Stamford CT, USA). […]
# glycerol, 1 mM TCEP, pH 8) on ice for 1 h. We analyzed the aliquots by ESI-MS using an Thermo Fisher Scientific Dionex UltiMate 3000 HPLC system connected to a Thermo Fisher Scientific Velos Pro (2d ion trap). Therefore, 5 μL of sample was injected and separated using a Vydac 214TP C4 5 μm column (150 mm x 2.1 mm) starting at 20% of solvent B for 5 minutes followed by a gradient up to 90% of solvent B over 14 min with a flow rate of 210 μL/min with 0.1% TFA in water as solvent A and 0.1% TFA in MeCN as solvent B. A mass range of 700 to 2000 m/z was scanned and raw data was deconvoluted and analyzed with MagTran software (Z.Q. Zhang, A.G. […]
# [9] = test system: H358 cells (KRAS mutant); experiment: CellTiter-Glo viability assay, H358; assay type: cell-based; details: Homo sapiens, NCI-H358; H358, 96 hours, CellTiter-Glo; read-out: KRAS CTG EC50 H358;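 also: viable cell number estimated from ATP-dependent luminescence following exposure to serially diluted inhibitor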
# Procedure: as §1, §2, §3
# [10] = target: T3, EGFR-wt; experiment: Kinetic characterization (Ki, kinact), EGFR-wt
# [11] = test system: HCC827 cells (EGFR-delE746_A750); experiment: CellTiter-Glo viability assay, HCC827; assay type: cell-based; details: Homo sapiens; HCC827, 96 hours, CellTiter-Glo; read-out: EGFR CTG EC50 HCC827;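 also: luminescence from ATP content as a measure of metabolically active cells, in RPMI with 10% FBS, compound added as serial dilutions after 24 h of preculture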
# [12] = test system: H1975 cells (EGFR-L858R/T790M); experiment: CellTiter-Glo viability assay, H1975; details: Homo sapiens, NCI-H1975, 96 h, read-out: EGFR CTG EC50 H1975, H1975, 96 hours, CellTiter-Glo
# Procedure: as §1, §2, §3
# [13] = target: T2, EGFR-L858R/T790M; experiment: Kinetic characterization (Ki, kinact), EGFR-L858R/T790M
# T1 sequence (P00533 25-1210 L858R): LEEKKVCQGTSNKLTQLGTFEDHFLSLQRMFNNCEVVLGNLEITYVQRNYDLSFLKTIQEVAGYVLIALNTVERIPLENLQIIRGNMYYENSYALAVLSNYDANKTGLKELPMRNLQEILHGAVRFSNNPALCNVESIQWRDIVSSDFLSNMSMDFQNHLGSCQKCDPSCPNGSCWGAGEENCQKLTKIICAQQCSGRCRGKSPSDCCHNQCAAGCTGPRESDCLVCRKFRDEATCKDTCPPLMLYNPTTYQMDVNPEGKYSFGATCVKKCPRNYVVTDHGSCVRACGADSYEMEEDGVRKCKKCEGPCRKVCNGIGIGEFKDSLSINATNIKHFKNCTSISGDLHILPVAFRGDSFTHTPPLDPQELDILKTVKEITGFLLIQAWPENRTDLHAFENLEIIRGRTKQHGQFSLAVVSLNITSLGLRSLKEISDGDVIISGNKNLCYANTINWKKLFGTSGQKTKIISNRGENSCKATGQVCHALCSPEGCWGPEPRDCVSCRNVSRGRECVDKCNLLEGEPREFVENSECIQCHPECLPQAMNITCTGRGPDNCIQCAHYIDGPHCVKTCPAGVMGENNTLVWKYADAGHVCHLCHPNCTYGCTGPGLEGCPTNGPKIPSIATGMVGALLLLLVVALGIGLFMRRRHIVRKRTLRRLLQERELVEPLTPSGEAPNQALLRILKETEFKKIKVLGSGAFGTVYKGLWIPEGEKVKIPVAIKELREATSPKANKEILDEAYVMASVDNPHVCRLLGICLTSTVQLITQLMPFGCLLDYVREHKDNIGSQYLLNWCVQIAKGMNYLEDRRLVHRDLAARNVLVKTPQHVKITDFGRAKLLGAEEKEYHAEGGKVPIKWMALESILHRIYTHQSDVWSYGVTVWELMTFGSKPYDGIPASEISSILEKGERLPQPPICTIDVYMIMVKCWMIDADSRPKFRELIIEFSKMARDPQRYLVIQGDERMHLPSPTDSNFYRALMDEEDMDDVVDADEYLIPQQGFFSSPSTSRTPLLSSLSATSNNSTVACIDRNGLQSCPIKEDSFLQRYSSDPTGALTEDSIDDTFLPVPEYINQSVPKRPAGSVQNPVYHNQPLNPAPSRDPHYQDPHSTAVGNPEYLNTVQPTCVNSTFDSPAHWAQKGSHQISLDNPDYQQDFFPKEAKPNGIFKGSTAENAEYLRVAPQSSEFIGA
structure (smiles),measurement,setting,value
C=CC(=O)Nc1cccc(-c2c(-c3ccc(N4CCN(C)CC4)cc3)[nH]c3ncn(C(C)C)c(=O)c23)c1 [Compound 29g],Ki,[1],10 ± 1 nM
same,kinact,[1],0.00317 s⁻¹
same,kinact/KI,[1],310000 ± 110000 M⁻¹ s⁻¹
same,EC50,[2],5720 ± 240 nM
same,IC50,[3],1 ± 0.3 nM
same,EC50,[4],1410 ± 917 nM
same,IC50,[5],0.4 nM
same,IC50,[6],1 ± 0.1 nM
same,microsomal CLint at 3 µM,[7],8 µL/min/mg
same,concentration at which phosphorylation of EGFR and downstream proteins was reduced/inhibited,[8],around 100 nM
same,EC50,[9],9390 ± 3380 nM
same,Ki,[10],10 ± 1 nM
same,kinact,[10],0.00167 s⁻¹
same,kinact/KI,[10],160000 ± 60000 M⁻¹ s⁻¹
same,EC50,[11],67 ± 7 nM
same,EC50,[12],65 ± 11 nM
same,Ki,[13],15 ± 3 nM
same,kinact,[13],0.00433 s⁻¹
same,kinact/KI,[13],300000 ± 90000 M⁻¹ s⁻¹
